This note sets out measurements from ChEMBL document CHEMBL1201862, “PubChem BioAssay data set” (2004).

Some test systems named below: A498; Malme-3M; SW-620; EKVX; SNB-19; KM12; MOLT-4; RPMI-8226; SK-OV-3; COLO 205; 786-0; MDA-MB-435; UACC-257; SF-268; SF-539; IGROV-1; HCT-15; OVCAR-5; SF-295; K562.
Assay in all cases: inhibition of tumour cell growth, NCI panel, 48 h

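These data come from cells grown in 96-well plates and exposed to compound for 48 hours at five concentrations. GI50: concentration for 50% inhibition of growth.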 Activity calls are given as the source filed them. No stated cut-off is given here; in the data, active = GI50 up to about 1.1 µM and inactive = higher.

For `O=C(c1ccccc1)c1ccc2c(c1)nc1n2C(c2c(Cl)cccc2Cl)SC1` (stereo unspecified), the GI50 with A498 is 58.7 µM (inactive); in the assay on Malme-3M it was 97.5 µM (inactive); in the assay on SW-620, > 100 µM (inactive); in the assay on EKVX, 50.4 µM (inactive); with SNB-19 it was 77.1 µM (inactive); with KM12, 19.9 µM (inactive). Moreover, the GI50 in the assay on MOLT-4 is 31.4 µM (inactive); with RPMI-8226, 52.4 µM (inactive); in the assay with SK-OV-3, > 100 µM (inactive); in the assay with COLO 205 it was 45.6 µM (inactive); with 786-0 it was 72.6 µM (inactive); in the assay with MDA-MB-435, 59.2 µM (inactive). Besides, the GI50 in the assay with UACC-257 is 95.5 µM (inactive); with SF-268, 67.5 µM (inactive); in the assay with SF-539 it was > 100 µM (inactive); with IGROV-1, > 100 µM (inactive); in the assay on HCT-15, 56 µM; in the assay with OVCAR-5, > 100 µM (inactive). Moreover, in the assay on SF-295, the GI50 is 27.6 µM (inactive).

Regarding `C=CCOCn1ccc(=O)[nH]c1=O`, the GI50 in the assay on A498 was > 100 µM (inactive); in the assay on Malme-3M, 94.4 µM (inactive); in the assay on SW-620, > 100 µM (inactive); in the assay with EKVX, > 100 µM (inactive); with SNB-19, > 100 µM (inactive); with KM12, > 100 µM (inactive). Besides, the GI50 in the assay with MOLT-4, in the assay with RPMI-8226, with SK-OV-3, with K562, in the assay on COLO 205 and in the assay on 786-0 was > 100 µM (inactive) in each case. The GI50 was > 100 µM (inactive) with MDA-MB-435; > 100 µM (inactive) in the assay with UACC-257; > 100 µM (inactive) with SF-268; > 100 µM (inactive) with SF-539; > 100 µM (inactive) with IGROV-1; more than 100 µM in the assay with HCT-15. Further, in the assay on SF-295, the GI50 was > 100 µM (inactive).

For the molecule `CCC1CC2CN3CCc4c([nH]c5c(-c6c(OC)ccc7c8c([nH]c67)[C@]6(C(=O)OC)CC7CC(CC)C6N(CC8)C7)c(O)ccc45)[C@](C(=O)OC)(C2)C13` (stereo partly specified), the GI50 with A498 is 15.1 µM (inactive); in the assay with Malme-3M, > 10 µM (inactive); in the assay with SW-620, 12.4 µM (inactive); in the assay on EKVX, 17.1 µM (inactive); in the assay on SNB-19, 14.3 µM (inactive); in the assay on KM12, 12.4 µM (inactive). Besides, the GI50 was 2.64 µM (inactive) in the assay on MOLT-4; 25.6 µM (inactive) in the assay on SK-OV-3; 6.19 µM (inactive) in the assay on K562; 11.4 µM (inactive) in the assay on COLO 205; 12.6 µM (inactive) in the assay with 786-0; 11.1 µM (inactive) with MDA-MB-435. The GI50 was 18.6 µM (inactive) with UACC-257; 12.1 µM (inactive) in the assay on SF-268; 19.5 µM (inactive) in the assay with SF-539; 14 µM (inactive) with IGROV-1; 15.2 µM with HCT-15; 16.6 µM (inactive) in the assay on OVCAR-5. In the assay on SF-295, the GI50 was 17.4 µM (inactive).

For the molecule `FC(F)(Sc1ccccn1)c1nc2ccccc2o1`, the GI50 was 38.7 µM (inactive) in the assay on A498; > 100 µM (inactive) with Malme-3M; > 100 µM (inactive) with SW-620; > 100 µM (inactive) in the assay on KM12; > 100 µM (inactive) with MOLT-4; > 100 µM (inactive) with RPMI-8226. In addition, the GI50 in the assay on SK-OV-3 was > 100 µM (inactive); with K562, 60.5 µM (inactive); with COLO 205 it was > 100 µM (inactive); in the assay with 786-0, > 100 µM (inactive); in the assay with MDA-MB-435 it was > 100 µM (inactive); in the assay on UACC-257, > 100 µM (inactive). The GI50 is > 100 µM (inactive) in the assay on SF-268; > 100 µM (inactive) in the assay with SF-539; > 100 µM (inactive) in the assay on IGROV-1; 55.7 µM in the assay with HCT-15; > 100 µM (inactive) in the assay with OVCAR-5; > 100 µM (inactive) in the assay on SF-295.

Turning to `COC(=O)CC1C(COC(C)=O)OC(n2cc(C)c(=O)[nH]c2=O)C1OC(C)=O` (stereo unspecified), the GI50 in the assay on A498, with Malme-3M, with SW-620, in the assay with EKVX, in the assay with SNB-19 and in the assay on KM12 was > 100 µM (inactive) throughout. Further, the GI50 with RPMI-8226, in the assay on SK-OV-3, with COLO 205, in the assay with 786-0, in the assay with MDA-MB-435 and in the assay with UACC-257 was > 100 µM (inactive) each time. The GI50 is > 100 µM (inactive) with SF-268; > 100 µM (inactive) in the assay with SF-539; > 100 µM (inactive) in the assay on IGROV-1; more than 100 µM in the assay on HCT-15; > 100 µM (inactive) with OVCAR-5; > 100 µM (inactive) with SF-295.

For `Cn1c(=O)c2ccccc2c2ccccc21`, the GI50 in the assay on A498 is 30.8 µM (inactive); in the assay on Malme-3M, 46 µM (inactive); with SW-620 it was 45.2 µM (inactive); in the assay on EKVX it was 18.8 µM (inactive); with SNB-19, 64 µM (inactive); with KM12, 72.9 µM (inactive). In addition, the GI50 in the assay with RPMI-8226 was 37.8 µM (inactive); with SK-OV-3 it was 27.5 µM (inactive); in the assay on COLO 205, 34.3 µM (inactive); in the assay on 786-0, 45.6 µM (inactive); in the assay with MDA-MB-435, 56.8 µM (inactive); in the assay on UACC-257, 81.1 µM (inactive). The GI50 in the assay on SF-268 is 40.6 µM (inactive); in the assay on SF-539 it was 38 µM (inactive); in the assay with HCT-15, 40 µM; with SF-295, 48.4 µM (inactive).

Regarding `Clc1ccc(C(OCn2ccnc2)c2nc3ccccc3[nH]2)c(Cl)c1` (stereo unspecified), the GI50 is 38.2 µM (inactive) in the assay with A498; 88.9 µM (inactive) in the assay with Malme-3M; 26.9 µM (inactive) in the assay with SW-620; 66.2 µM (inactive) in the assay on EKVX; 89.3 µM (inactive) with SNB-19; > 100 µM (inactive) in the assay with KM12. Also, the GI50 in the assay with MOLT-4 is 29.6 µM (inactive); in the assay with RPMI-8226, 24.6 µM (inactive); with K562, 45.7 µM (inactive); in the assay with COLO 205, 34 µM (inactive); in the assay with 786-0, 39 µM (inactive); with MDA-MB-435, 25.2 µM (inactive). The GI50 is 35.5 µM (inactive) with UACC-257; 61.8 µM (inactive) in the assay with SF-268; 35.8 µM (inactive) with SF-539; 43.3 µM (inactive) in the assay on IGROV-1; 27.7 µM in the assay with HCT-15; > 100 µM (inactive) in the assay on OVCAR-5. Moreover, the GI50 in the assay on SF-295 is 29.6 µM (inactive).

`O=c1[nH]cc(F)c(=O)[nH]1` [FLUOROURACIL]: the GI50 with A498 is 10.2 µM (inactive); with Malme-3M, 22.5 µM (inactive); in the assay on SW-620 it was 27.7 µM (inactive); in the assay on EKVX, 299 µM (inactive); with SNB-19 it was 116 µM (inactive); with KM12, 9.51 µM (inactive). Besides, the GI50 in the assay on MOLT-4 was 14 µM (inactive); in the assay with RPMI-8226 it was 4.91 µM (inactive); in the assay on SK-OV-3 it was 171 µM (inactive); with K562, 21.2 µM (inactive); with 786-0, 11.9 µM (inactive); in the assay on MDA-MB-435, 10.6 µM (inactive). Also, the GI50 in the assay with UACC-257 was 95.7 µM (inactive); in the assay with SF-268, 51.4 µM (inactive); in the assay with SF-539 it was 1.33 µM (inactive); with IGROV-1 it was 14.3 µM (inactive); in the assay with OVCAR-5 it was 172 µM (inactive); in the assay with SF-295, 51.9 µM (inactive).
